Source: ChEMBL document CHEMBL1201862, “PubChem BioAssay data set” (2004)
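Where inhibition never reached the appropriate level, the endpoint shown equals the highest concentration tested. Otherwise, values were interpolated linearly from a five-concentration, 48-hour dose response in 96-well plates. GI50 is the concentration that inhibits growth by half.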 Active and inactive are the calls of the source. Cut-off read from the data, not from the text of the source: active = GI50 up to about 1.1 µM and inactive = higher.

What was measured:
Experiment in all cases: NCI-60 cell line screen, 48 h
ACHN = tested on: ACHN
COLO 205 = tested on: COLO 205
DU-145 = tested on: DU-145
IGROV-1 = tested on: IGROV-1
K562 = tested on: K562
MCF7 = tested on: MCF7
MDA-MB-231 = tested on: MDA-MB-231
Malme-3M = tested on: Malme-3M
OVCAR-5 = tested on: OVCAR-5
RXF 393 = tested on: RXF 393
SK-MEL-28 = tested on: SK-MEL-28
SK-MEL-2 = tested on: SK-MEL-2
SK-OV-3 = tested on: SK-OV-3
SNB-19 = tested on: SNB-19
SNB-75 = tested on: SNB-75
SW-620 = tested on: SW-620
UACC-257 = tested on: UACC-257
UACC-62 = tested on: UACC-62
NCI-H226 = tested on: NCI-H226

Measured: GI50

O=C1N[C@@H]2c3c(csc3Br)C(=O)[C@@H]2O1
inactive: ACHN 37.2 µM | COLO 205 35 µM | DU-145 39.1 µM | IGROV-1 26.5 µM | K562 21.5 µM | MCF7 32.6 µM | MDA-MB-231 43.7 µM | Malme-3M 32 µM | OVCAR-5 74 µM | RXF 393 15.5 µM | SK-MEL-28 33.3 µM | SK-MEL-2 46.5 µM | SK-OV-3 90.4 µM | SNB-19 94 µM | SNB-75 48.4 µM | SW-620 20.2 µM | UACC-257 22.4 µM | UACC-62 34.1 µM

Nc1ccc(/C=C/c2ccc3cccnc3c2)cc1
inactive: ACHN 52.5 µM | COLO 205 > 100 µM | DU-145 > 100 µM | K562 > 100 µM | MCF7 5.81 µM | MDA-MB-231 > 100 µM | Malme-3M > 100 µM | NCI-H226 > 100 µM | OVCAR-5 > 100 µM | RXF 393 > 100 µM | SK-MEL-28 > 100 µM | SK-OV-3 > 100 µM | SNB-19 > 100 µM | SNB-75 > 100 µM | SW-620 > 100 µM | UACC-257 > 100 µM | UACC-62 > 100 µM

COC(=O)Nc1nc2cc(S(=O)(=O)n3nnc4ccccc43)ccc2[nH]1
inactive: ACHN 59.4 µM | COLO 205 > 100 µM | DU-145 > 100 µM | IGROV-1 31.3 µM | K562 > 100 µM | MCF7 28.1 µM | MDA-MB-231 43.5 µM | Malme-3M 30.5 µM | OVCAR-5 > 100 µM | RXF 393 14.6 µM | SK-MEL-28 > 100 µM | SK-MEL-2 > 100 µM | SK-OV-3 17.1 µM | SNB-19 29.9 µM | SNB-75 6.62 µM | SW-620 > 100 µM | UACC-257 5.61 µM | UACC-62 41.5 µM

COc1cc(O)c(C(=O)/C=C/c2ccc(O)cc2)cc1Oc1ccc(C(=O)/C=C/c2ccc(O)cc2)c(O)c1 [RHUSCHALCONE IV]
inactive: ACHN 2.4 µM | COLO 205 1.88 µM | DU-145 2.29 µM | IGROV-1 1.67 µM | K562 3.39 µM | MCF7 2.69 µM | MDA-MB-231 3.6 µM | Malme-3M 2.58 µM | OVCAR-5 2.69 µM | RXF 393 2.48 µM | SK-MEL-28 1.95 µM | SK-MEL-2 3.36 µM | SK-OV-3 2.88 µM | SNB-19 4.53 µM | SNB-75 4.21 µM | SW-620 3.36 µM | UACC-257 6.19 µM | UACC-62 2.33 µM
